From patent US7064133B2, “Quinoline derivatives process of synthesis and medicaments containing these derivatives” (Bioalliance Pharma, priority 2001, dated 2006)

How the values were obtained:
Format in all cases: cell-based
[1] = test system: HeLa; assay: Cytotoxicity, MTT to formazan test, adherent cells; details: at 500 μM
Procedure: (§1) The toxicity of the compounds is evaluated by a test of biotransformation of MTT to formazan by cellular mitochondrial dehydrogenases.

[2] = test system: integration of viral DNA into the host genome; assay: Inhibition of the integration of viral DNA into the host genome (PCR, densitometry) in infected CEM cells; details: 24 hours
Procedure: This test consists in bringing CEM cells into contact with the supernatant of infected cells containing the infectious virions. After 2 hours, the cells are washed and placed again in RPMI medium containing the compound according to the invention for 24 hours (BioA53). The DNA of the cells is then extracted using a genomic DNA preparation kit (QiaBlood, Qiagen™). This DNA is the target for PCR amplifications aimed at evaluating, on the one hand, the quantity of total viral DNA present in the solution, and, on the other hand, the quantity of viral DNA integrated into the cellular genome. The latter amplification takes place in two stages: the first step uses a PCR primer homologous to a sequence of the retroviral DNA; the second primer is homologous to the repetitive genomic Alu sequences. The second stage is a nested PCR which makes it possible to visualize the retroviral DNA.
The quantity of DNA is evaluated by densitometry after separation of the amplification products on agarose gel.

[3] = test system: CEM; assay: Cytotoxicity, MTT to formazan test, cells in suspension; details: at 500 μM
Procedure: as §1

Structure (SMILES) | cytotoxicity (MTT) [1] | decrease in the quantity of DNA integrated ([2]; 50 μM, CEM cells) | inhibition of DNA integrated ([2]; 100 μM, CEM cells) | quantity of total viral DNA ([2]; treatment of CEM cells with the compound) | cytotoxicity (MTT) [3]
O=C(NCc1ccc(O)c(O)c1)c1ccc2ccc(C(=O)[O-])c(O)c2n1.[Na+] [BioA53, sodium 2-(3,4-dihydroxybenzylcarbamoyl)-8-hydroxyquinoline-7-carboxylate] | lacks cytotoxicity | at least 80% | inhibition of the entire DNA integrated | not affected | lacks cytotoxicity
O=C(NCc1ccc(O)cc1O)c1ccc2ccc(C(=O)[O-])c(O)c2n1.[Na+] [BioA163, sodium 2-(2,4-dihydroxybenzylcarbamoyl)-8-hydroxyquinoline-7-carboxylate] | lacks cytotoxicity |  |  |  | lacks cytotoxicity
